{
  "source": "patent US4510338A",
  "about": "“Resorcin derivatives, process for their preparation and pharmaceutical compositions containing them” (priority 1982, dated 1985)",
  "key": {"[1]": {"system": "alcoholic intoxication, narcosis", "conditions": "Sprince et al. 1974; Nagasawa et al. 1975; cited from earlier work"}, "ethanolic narcosis": {"system": "ethanolic narcosis", "experiment": "Ethanolic narcosis period (righting reflex)", "type": "in vivo, Hann.-Wistar rats", "conditions": "for Ethanolic narcosis period (x ± S.E. %), related to control: 1 h before 3.5 g/kg ethanol i.p., n=10", "method": "The change of ethanolic narcosis period was tested on Hann.-Wistar rats of both sexes weighing 160 to 180 g. each, which were fasted for 16 hours prior to treatment. Groups of ten were treated with various doses of a test compound of the formula (I), orally. One hour after treatment the rats were administered a 3.5 g./kg. dose of ethanol intraperitoneally. The narcosis period of the animals was measured from the elapse of the righting reflex until a spontaneous correction of the body position. The average of the narcosis period and the percentage difference related to the control were calculated. The control group was treated with placebo and a […]. dose of ethanol. Control narcosis period: 99.6±6.55 (x±S.E.) min."}, "[2]": {"system": "ataxia induced by ethanol", "experiment": "Ataxia induced by ethanol, rotarod test", "type": "in vivo, BALB/c mice", "method": "Previously trained and selected BALB/c mice weighing 16 to 18 g. each were treated with a 40 mg./kg. dose of the compound to be tested orally, one hour before the intraperitoneal administration of a 2.5 g./kg. dose of ethanol. The number of the animals remaining on the rods 60, 90 and 120 minutes, resp., after treatment with ethanol was determined. The animals having an intact coordination could stay at the rod as long as 120 minutes. The test was carried out on groups of ten."}, "[3]": {"system": "ethanolic locomotor activity", "experiment": "Locomotor activity change by ethanol (Animex BSE motimeter)", "type": "in vivo, BALB/c mice", "conditions": "n=15", "method": "The change of ethanolic locomotor activity was tested on BALB/c mice of both sexes, weighing 16 to 18 g. each. Groups of 15 were treated with a 40 mg./kg. oral dose of the test compound 60 minutes prior to the administration of placebo and 2 g./kg. ethanol, respectively (i.p.).\nThe control animals were treated with placebo. The locomotor activity of the animals was measured for two hours with an Animex BSE motimeter."}, "in vivo": {"experiment": "in vivo", "conditions": "rat, oral, male Hann.-Wistar rats, 14 days observation, probit analysis", "method": "The acute toxicity of the compounds according to the invention was tested on male Hann.-Wistar rats each weighing 160 to 180 g. The animals were treated with various doses of the test compounds orally, and the dose resulting in the perish of 50% of the animals was calculated by probite analysis from the %-age of the perished animals."}, "[4]": {"system": "ethanolic locomotoric hyperactivity", "conditions": "mice, Carlsson et al. 1972, cited from earlier work"}},
  "data": [
    {"smiles": "N[C@@H](CS)C(=O)O", "note": "[L-cysteine, reference compound]", "values": [
      {"measurement": "Alcoholic intoxication, narcosis duration", "setting": "[1]", "value": "shortened"},
      {"measurement": "Ethanolic narcosis period (x ± S.E. %), related to control", "setting": "ethanolic narcosis; 500.0 mg/kg orally", "value": "63 ± 4.2", "unit": "%"},
      {"measurement": "Dose dependence of effect on ethanolic narcosis period", "setting": "ethanolic narcosis; rats, oral", "value": "dose-dependent, unlike that of L-cysteine"}
    ]},
    {"smiles": "CCC(O)(c1cccc(C(F)(F)F)c1)c1ccc(O)cc1O", "note": "(stereo not drawn) [A, 4-[1-(3-trifluoromethylphenyl)-1-hydroxypropyl]-resorcin]", "values": [
      {"measurement": "Animals remaining on the rotating rod (%)", "setting": "[2]; 40 mg/kg oral + 2500 mg/kg ethanol i.p., 60 min", "value": 40, "unit": "%"},
      {"measurement": "Animals remaining on the rotating rod (%)", "setting": "[2]; 40 mg/kg oral + 2500 mg/kg ethanol i.p., 90 min", "value": 60, "unit": "%"},
      {"measurement": "Animals remaining on the rotating rod (%)", "setting": "[2]; 40 mg/kg oral + 2500 mg/kg ethanol i.p., 120 min", "value": 100, "unit": "%"},
      {"measurement": "Animals remaining on the rotating rod (%)", "setting": "[2]; 40 mg/kg oral, no ethanol, 60 min", "value": 100, "unit": "%"},
      {"measurement": "Animals remaining on the rotating rod (%)", "setting": "[2]; 40 mg/kg oral, no ethanol, 90 min", "value": 100, "unit": "%"},
      {"measurement": "Animals remaining on the rotating rod (%)", "setting": "[2]; 40 mg/kg oral, no ethanol, 120 min", "value": 100, "unit": "%"},
      {"measurement": "Total locomotor motion/2 hours in % of the control", "setting": "[3]; 40 mg/kg oral + placebo (no ethanol)", "value": "110 ± 10.3", "unit": "%"},
      {"measurement": "Total locomotor motion/2 hours in % of the control", "setting": "[3]; 40 mg/kg oral, 60 min before 2000 mg/kg ethanol i.p.", "value": "98 ± 9.5", "unit": "%"},
      {"measurement": "LD50 at 336 h", "setting": "in vivo", "value": 1250, "unit": "mg/kg"},
      {"measurement": "Ethanolic narcosis period (x ± S.E. %), related to control", "setting": "ethanolic narcosis; 0.3 mg/kg orally", "value": "70 ± 11.4", "unit": "%"},
      {"measurement": "Ethanolic narcosis period (x ± S.E. %), related to control", "setting": "ethanolic narcosis; 1.0 mg/kg orally", "value": "60 ± 9.2", "unit": "%"},
      {"measurement": "Ethanolic narcosis period (x ± S.E. %), related to control", "setting": "ethanolic narcosis; 5.0 mg/kg orally", "value": "36 ± 4.0", "unit": "%"},
      {"measurement": "Ethanolic narcosis period (x ± S.E. %), related to control", "setting": "ethanolic narcosis; 20.0 mg/kg orally", "value": "30 ± 5.5", "unit": "%"}
    ]},
    {"smiles": "CC(N)(Cc1ccc(O)cc1)C(=O)O", "note": "(stereo not drawn) [α-Methyl-para-tyrosine]", "values": [
      {"measurement": "Spontaneous locomotoric activity", "setting": "[4]; same dose range", "value": "decreases the spontaneous locomotoric activity"},
      {"measurement": "Ethanolic locomotoric hyperactivity", "setting": "[4]", "value": "normalizes the ethanolic locomotoric hyperactivity"}
    ]}
  ]
}
